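Interpolation was linear, between the two tested concentrations surrounding the appropriate level; five concentrations were tested over 48 hours in 96-well plates. GI50 is the concentration that inhibits growth by half.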 Calls of active or inactive are those of the source. No stated cut-off is given here; in the data, active = GI50 up to about 1.1 µM and inactive = higher.
What was measured:
Experiment in all cases: NCI tumour cell line growth inhibition, 48 h
[1] = system: A549
[2] = system: OVCAR-8
[3] = system: MDA-MB-435
[4] = system: SW-620
[5] = system: T47D
[6] = system: MDA-MB-231
[7] = system: UO-31
[8] = system: SF-539
[9] = system: ACHN
[10] = system: HOP-62
[11] = system: HCT-116
[12] = system: CCRF-CEM
[13] = system: MOLT-4
[14] = system: IGROV-1
[15] = system: SK-MEL-2
[16] = system: MCF7
[17] = system: NCI/ADR-RES
[18] = system: 786-0
[19] = system: SF-295
[20] = system: PC-3

Compound	GI50 [1]	GI50 [2]	GI50 [3]	GI50 [4]	GI50 [5]	GI50 [6]	GI50 [7]	GI50 [8]	GI50 [9]	GI50 [10]	GI50 [11]	GI50 [12]	GI50 [13]	GI50 [14]	GI50 [15]	GI50 [16]	GI50 [17]	GI50 [18]	GI50 [19]	GI50 [20]
CN(C)CCNS(=O)(=O)c1ccc(N)cc1	> 100 µM (inactive)	> 100 µM (inactive)	> 100 µM (inactive)	> 100 µM (inactive)	> 100 µM (inactive)	> 100 µM (inactive)	> 100 µM (inactive)	> 100 µM (inactive)	> 100 µM (inactive)	18.5 µM (inactive)	> 100 µM (inactive)	> 100 µM (inactive)	> 100 µM (inactive)	> 100 µM (inactive)	18 µM (inactive)	> 100 µM (inactive)	> 100 µM (inactive)	> 100 µM (inactive)	> 100 µM (inactive)	19.9 µM (inactive)
O=C1/C(=C\c2ccc([N+](=O)[O-])cc2)Sc2scc(-c3ccc(O)c(O)c3)[n+]21	17.6 µM (inactive)	4.45 µM (inactive)	9.75 µM (inactive)	3.4 µM (inactive)	12.8 µM (inactive)	10.9 µM (inactive)	4.72 µM (inactive)	5.02 µM (inactive)	6.82 µM (inactive)	13.4 µM (inactive)	4.2 µM (inactive)	2.68 µM (inactive)	2.62 µM (inactive)	5.11 µM (inactive)	14.7 µM (inactive)	3.56 µM (inactive)	4.84 µM (inactive)	3.73 µM (inactive)	12.5 µM (inactive)	5.71 µM (inactive)
Cc1ccc(C)c(COCCOCn2c(=O)[nH]c(=O)c3cc(Br)ccc32)c1	> 100 µM (inactive)	94.2 µM (inactive)	> 100 µM (inactive)	> 100 µM (inactive)	74.6 µM (inactive)	66.4 µM (inactive)	> 100 µM (inactive)	99.3 µM (inactive)	> 100 µM (inactive)	41.7 µM (inactive)	> 100 µM (inactive)	> 100 µM (inactive)	> 100 µM (inactive)	60.3 µM (inactive)	> 100 µM (inactive)	> 100 µM (inactive)	> 100 µM (inactive)	29.4 µM (inactive)	> 100 µM (inactive)	> 100 µM (inactive)
CC(=O)O[C@H]1C(=O)[C@@]2(C)[C@H]([C@H](OC(=O)c3ccccc3)[C@]3(O)C[C@H](OC(=O)[C@H](O)[C@@H](NC(=O)c4ccoc4)c4ccccc4)C(C)=C1C3(C)C)[C@]1(OC(C)=O)CO[C@@H]1C[C@@H]2O	0.0386 µM (active)	0.067 µM (active)	0.0071 µM (active)	0.021 µM (active)	0.0307 µM (active)	0.0434 µM (active)	3.39 µM (inactive)	0.0292 µM (active)	0.37 µM (active)	0.212 µM (active)	0.0147 µM (active)	0.0379 µM (active)	0.0332 µM (active)	0.016 µM (active)	0.0225 µM (active)	0.0265 µM (active)	44 µM (inactive)	0.18 µM (active)	< 0.01 µM (active)	0.0212 µM (active)
Cc1cn(CCCC2=NCCCN2)c(=O)[nH]c1=O	> 100 µM (inactive)	> 100 µM (inactive)	> 100 µM (inactive)	> 100 µM (inactive)	> 100 µM (inactive)	> 100 µM (inactive)	> 100 µM (inactive)	> 100 µM (inactive)	> 100 µM (inactive)	> 100 µM (inactive)	> 100 µM (inactive)	> 100 µM (inactive)	> 100 µM (inactive)	> 100 µM (inactive)	> 100 µM (inactive)	> 100 µM (inactive)	> 100 µM (inactive)	> 100 µM (inactive)	> 100 µM (inactive)	> 100 µM (inactive)

Source: ChEMBL document CHEMBL1201862, “PubChem BioAssay data set” (2004)
